Reference: patent US20230220047A1, “PEPTIDES FOR TREATMENT OF SEPSIS AND CANCER” (NORWEGIAN UNIVERSITY OF SCIENCE AND TECHNOLOGY (NTNU), priority 2020, published 2023)

How the values were obtained:
[1] = tested on: JJN-3 multiple myeloma cells; type: cell-based, human; details: JJN-3, 10 μM
Excerpt: Minor effects on the proliferation of the IH-1 and RPMI 8226 cell lines are seen. […] The number of viable cells was detected based on quantitation of ATP by luminescent signal in correlation to a standard curve prepared for each cell line. Results are based on 3-5 biological replicates for each condition, error bars show standard deviation of mean.
Multiple myeloma cells JJN-3 (DSMZ (Germany) no. ACC 541), ANBL-6 (Cellosaurus accession number CVCL_5425, obtained from Dr Diane Jelinek, Mayo Clinic, Rochester, Minn.), INA-6 (Cellosaurus accession number CVCL_5209, obtained from Dr M. Gramatzki, University of Erlangen-Nurnberg, Erlangen, Germany), RPMI-8226 (ATCC CCL-155), and IH-1 (Cellosaurus accession number CVCL_WZ44, established from the pleural effusion of a myeloma patient by Myeloma research group, IKOM, NTNU, Trondheim, Norway) were grown in RPMI-1640 (Sigma-Aldrich Norway, Oslo, Norway) supplemented with 100 nM penicillin/streptomycin and 10% FCS, and for ANBL-6, IH-1 and INA-6 cells 2 ng/ml recombinant IL-6 (Gibco, Thermo Fisher Scientific, Waltham, Mass., USA). Murine multiple myeloma Vk*MYC cells were obtained from M.D. Leif Bergsagel (Mayo Clinic, Richester, Minn., USA) and cultured in RPMI-1640 supplemented with 2% human serum (B^+, The blood bank, St Olav's Hospital, Trondheim, Norway), 100 nM penicillin/streptomycin, L-Glutamine (2 mM) and recombinant IL-6 (1 ng/ml). HEK293T (ATCC CRL-3216) were cultured in DMEM with 10% FCS. THP-1 TRAM knockout (KO) and TLR4 KO cell lines, and matching lentivirally transduced control cell lines, were differentiated in the same way as wild type (WT) THP-1. TRAM KO THP-1 cell line is described in Yurchenko et al. (supra).
To evaluate the potential impact of the P7 peptide on proliferation of tumour cells of lymphoid origin, we performed a CellTiter-Glo Luminescent Cell Viability Assay to address proliferation of several multiple myeloma (MM) cell lines. […]

[2] = tested on: TLR4; test: Western blot of LPS signalling in murine immortalized BMDMs; type: cell-based, mouse; details: murine macrophages, 10 μM
Protocol: Western blot analysis of lysates from cells pretreated with media containing controls (water, DMSO or 10 μM control peptide C3-Pen) or P7-Pen peptide for 30 min before stimulation with LPS (K12 LPS, 100 ng/ml) for designated time periods.
Protein pellets were dissolved by heating protein pellets for 10 min at 95° C. in buffer containing 4 M urea, 1 SDS (Sigma) and NuPAGE® LDS Sample Buffer (4×) (Thermo Fisher Scientific). Otherwise, lysates were made using 1× RIPA lysis buffer (150 mM NaCl, 50 mM TrisHCl (pH 7.5), 1% Triton X100, 5 mM EDTA, protease inhibitors, phosphatase inhibitors). For Western blot analysis we used pre-cast protein gels NuPAGE™ Novex™ and iBlot Transfer Stacks iBlot Gel Transfer Device (Thermo Fisher Scientific). Proteins were transferred to the membrane by dry-blotting using iBlot® 2 NC Regular/Mini Stacks (Life Technologies) in the iBlot 2 Dry Blotting System (Life Technologies). After secondary antibody incubation, membranes were washed and incubated with HRP substrate solution (SuperSignal™ West Femto Maximum Sensitivity Substrate (Thermo Fisher Scientific)). Images were taken using Odyssey® Fc (LI-CORE). Quantification graphs were generated by the analysis of signal intensities for protein bands (protein of interest and endogenous loading control—β-tubulin from the same membrane) using Odyssey software (LI-CORE). Data were normalised to the expression levels of β-tubulin and presented as a relative fold change to the control sample.
In addition, pre-treatment of murine macrophages with P7-Pen inhibited LPS-mediated phosphorylation of TBK1 and IκBα, and decreased phosphorylation of p38 MAPK (FIG. 23).

[3] = tested on: TLR8; test: Primary human macrophages stimulated with CL075: cytokine mRNA, Western blot, IRAK precipitations; type: cell-based; details: TLR8-stimulated cells, 15 μM, CL075 3 μg/ml
Protocol: Primary human macrophages (PBMC derived, differentiated in media with 10% human serum and M-CSF 20 ng/ml, 7 days) were stimulated with K12 LPS (100 ng/ml), FSL-1 (100 ng/ml) or CL075 (3 μg/ml). […] (B) qPCR for mRNA expression of IFNβ, IL-6, TNF and IL-1β, average for three biological replicates, error bars ±SD.
Primary human macrophages (7 days) were pre-treated with Pen or P7-Pen (15 μM) for 30 min before addition of LPS (100 ng/ml), FSL-1 (100 ng/ml) or CL075 (3 μg/ml). A: Protein expression in lysates for input control. B,C: Precipitations were performed using sheep anti-IRAK4 (B) or anti-IRAK1 (C) polyclonal antibodies covalently bound to magnetic beads.

Q: For “Ac-ITVAASVTLTGRQIKIWFQNRRMKWKK-NH2 [Peptide P7-A4-Pen]”, which cell proliferation ([1]; 48 h) is on record?
A: The cell proliferation was “strongly inhibited cell proliferation”.

Q: What about the cell death ([1]; 48 h (LDH assay not shown)) of the same substance?
A: The cell death was “induced cell death”.

Q: With “Ac-ITVYASVTLTGRQIKIWFQNRRMKWKK-NH2 [Peptide P7-Pen]” as the substance, how does the “LPS-mediated phosphorylation of TBK1 and IκBα” value [2] read?
A: Its value is “inhibited”.

Q: And the “phosphorylation of p38 MAPK” value ([2]; LPS)?
A: Its value is “decreased”.

Q: And the “IRAK1 and IRAK4 recruitment to MyD88 at an early time point” value [3]?
A: Its value is “inhibitory effect”.

Q: What about the “late recruitment of IRAKs or phosphorylation of p38 MAPKs” value [3] of the same substance?
A: The value was “no effect”.
